Consider two molecules from BindingDB's records for doi:10.1021/jm00092a001 (Wyeth-Ayerst Research, 1992).

The term IC50 denotes the concentration that gives 50% inhibition.

Test [1] in a line: The compound was tested for inhibitory activity against 5-Lipoxygenase in guinea pig polymorphonuclear leukocytes.
Test [2] has as its target Polyunsaturated fatty acid 5-lipoxygenase (Mus musculus) (UniProt P48999). Kind of test: The compound was tested for inhibitory activity against 5-lipoxygenase in mouse.

Chain of Polyunsaturated fatty acid 5-lipoxygenase (Mus musculus) (P48999 whole entry, looked up): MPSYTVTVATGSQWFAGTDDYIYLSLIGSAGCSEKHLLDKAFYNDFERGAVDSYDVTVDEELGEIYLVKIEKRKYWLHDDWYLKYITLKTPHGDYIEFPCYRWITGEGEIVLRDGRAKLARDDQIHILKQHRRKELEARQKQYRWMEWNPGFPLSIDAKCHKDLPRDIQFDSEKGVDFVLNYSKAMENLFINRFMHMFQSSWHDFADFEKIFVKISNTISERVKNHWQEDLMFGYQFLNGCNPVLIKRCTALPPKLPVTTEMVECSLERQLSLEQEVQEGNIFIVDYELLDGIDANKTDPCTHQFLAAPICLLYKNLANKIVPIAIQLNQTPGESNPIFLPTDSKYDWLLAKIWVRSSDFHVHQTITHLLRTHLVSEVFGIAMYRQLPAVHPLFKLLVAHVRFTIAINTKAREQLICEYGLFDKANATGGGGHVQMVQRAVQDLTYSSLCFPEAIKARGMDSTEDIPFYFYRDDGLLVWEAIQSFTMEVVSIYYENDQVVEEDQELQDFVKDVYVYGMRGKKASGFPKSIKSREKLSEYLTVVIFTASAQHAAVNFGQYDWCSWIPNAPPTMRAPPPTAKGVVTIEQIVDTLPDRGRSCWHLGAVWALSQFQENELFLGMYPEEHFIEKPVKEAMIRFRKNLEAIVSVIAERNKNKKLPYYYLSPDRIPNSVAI

Regarding `Cc1ccc(C)n1-c1ccc(/C=C/CC(=O)N(C)O)cc1`, half-maximal inhibition in test [1] (IC50) was put at 600 nM.

`Cc1nc(NCCCCCCc2ccccc2)nc(C)c1O` yielded an IC50 in test [2] of 300 nM.
